From patent USRE48335E1, “Polymyxin derivatives as antimicrobial compounds” (priority 2014, dated 2020)
Converted amounts (≈) assume the structure as drawn. Positions of bridges follow the written chain, without caps; N, C: chain ends. Non-standard residues stand in square brackets, D forms with d. Residues, ends and D or L forms follow the SMILES beside them. *: point of attachment. Phenylacetyl(4-CF3) = O=C(Cc1ccc(C(F)(F)F)cc1)*; Benzoyl(3-CF3) = O=C(c1cccc(C(F)(F)F)c1)*; X17 = Cc1cc(C(=O)*)cc(C(F)(F)F)c1; X20 = Cc1cc(C(=O)*)ccc1C(F)(F)F; dNle = CCCC[C@@H](N)C(=O)O; Octanoyl = CCCCCCCC(=O)*; Dab = NCC[C@H](N)C(=O)O; Abu = CC[C@H](N)C(=O)O; Dap = NC[C@H](N)C(=O)O

What was measured:
[1] = tested on: P. aeruginosa ATCC 27853; assay: In vivo efficacy in mouse blood infection model (neutropenic Swiss mice); conditions: compound, free base 4 mg/kg intravenously 2 h after inoculation, blood at 4 h
Procedure, shortened: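 Activity expressed as Δlog10 CFU/mL blood, treated minus saline control, 4 h after a single 4 mg/kg (free base) i.v. dose given 2 h post-infection. Bloodstream infection from i.v. early log-phase inoculum in Swiss mice made neutropenic by i.p. cyclophosphamide on days −4 (150 mg/kg) and −1 (100 mg/kg).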

[2] = tested on: Acinetobacter baumannii
Procedure, shortened: (§1)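 Lipopeptides, as trifluoroacetate salts, tested for MIC in CAMHB by CLSI broth microdilution, with polymyxin B (sulphate) as comparator.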

[3] = tested on: Klebsiella pneumoniae
Procedure, shortened: as §1

[4] = tested on: Enterobacter cloacae
Procedure, shortened: as §1

[5] = tested on: Pseudomonas aeruginosa
Procedure, shortened: as §1

Structure (SMILES)	Δ log (Treated-Control at 4 h) [1] [log10 CFU/mL]	MIC [2] [mg/L]	Minimum inhibitory concentration, Ab A ATCC 17978 [2] [mg/L]	Minimum inhibitory concentration, Ab ATCC 19606 [2] [mg/L]	Minimum inhibitory concentration, Ab FADDI-AB034 [2] [mg/L]	MIC [3] [mg/L]	Minimum inhibitory concentration, Ec FADDI-EC001 [4] [mg/L]	Minimum inhibitory concentration, Ec FADDI-EC003 [4] [mg/L]	Minimum inhibitory concentration, Ec FADDI-EC006 [4] [mg/L]	MIC [5] [mg/L]	Minimum inhibitory concentration, Pa ATCC 27853 [5] [mg/L]	Minimum inhibitory concentration, Pa FADDI-PA022 [5] [mg/L]	Minimum inhibitory concentration, Pa FADDI-PA025 [5] [mg/L]
CC[C@@H]1NC(=O)[C@@H](CC(C)C)NC(=O)[C@H](CCN)NC(=O)[C@@H](NC(=O)[C@H](CN)NC(=O)[C@@H](NC(=O)[C@H](CCN)NC(=O)c2ccc(C(F)(F)F)c(C)c2)[C@@H](C)O)CCNC(=O)[C@H]([C@@H](C)O)NC(=O)[C@H](CCN)NC(=O)[C@H](CCN)NC1=O [Compound 119] (X20-[Dab]T[Dap][Dab][Dab][dL][Abu][Dab][Dab]T; lactam 4-C)	−3.40	1 (≈ 0.852 µM)	0.5 (≈ 0.426 µM)	1 (≈ 0.852 µM)	0.25 (≈ 0.213 µM)	<0.125	<0.125	<0.125	0.25 (≈ 0.213 µM)	0.5 (≈ 0.426 µM)	0.5 (≈ 0.426 µM)	0.5 (≈ 0.426 µM)	2 (≈ 1.7 µM)
CC[C@@H]1NC(=O)[C@@H](CC(C)C)NC(=O)[C@H](CCN)NC(=O)[C@@H](NC(=O)[C@H](CN)NC(=O)[C@@H](NC(=O)[C@H](CCN)NC(=O)c2cc(C)cc(C(F)(F)F)c2)[C@@H](C)O)CCNC(=O)[C@H]([C@@H](C)O)NC(=O)[C@H](CCN)NC(=O)[C@H](CCN)NC1=O [Compound 120] (X17-[Dab]T[Dap][Dab][Dab][dL][Abu][Dab][Dab]T; lactam 4-C)	−3.20	1 (≈ 0.852 µM)	0.5 (≈ 0.426 µM)	1 (≈ 0.852 µM)	0.5 (≈ 0.426 µM)	0.5 (≈ 0.426 µM)	0.25 (≈ 0.213 µM)	0.25 (≈ 0.213 µM)	0.25 (≈ 0.213 µM)	1 (≈ 0.852 µM)	1 (≈ 0.852 µM)	1 (≈ 0.852 µM)	2 (≈ 1.7 µM)
CCCC[C@H]1NC(=O)[C@H](CCN)NC(=O)[C@@H](NC(=O)[C@H](CN)NC(=O)[C@@H](NC(=O)[C@H](CCN)NC(=O)c2cccc(C(F)(F)F)c2)[C@@H](C)O)CCNC(=O)[C@H]([C@@H](C)O)NC(=O)[C@H](CCN)NC(=O)[C@H](CCN)NC(=O)[C@H](CC)NC1=O [Compound 121] ({Benzoyl(3-CF3)}-[Dab]T[Dap][Dab][Dab][dNle][Abu][Dab][Dab]T; lactam 4-C)	−2.81	0.5 (≈ 0.431 µM)	0.5 (≈ 0.431 µM)	0.5 (≈ 0.431 µM)	0.5 (≈ 0.431 µM)	0.25 (≈ 0.216 µM)	0.25 (≈ 0.216 µM)	0.25 (≈ 0.216 µM)	0.25 (≈ 0.216 µM)	0.5 (≈ 0.431 µM)	0.5 (≈ 0.431 µM)	1 (≈ 0.863 µM)	2 (≈ 1.73 µM)
C[C@@H](O)[C@@H]1NC(=O)[C@H](CCN)NC(=O)[C@H](CCN)NC(=O)[C@H]([C@@H](C)O)NC(=O)[C@@H](Cc2ccccc2)NC(=O)[C@H](CCN)NC(=O)[C@@H](NC(=O)[C@H](CN)NC(=O)[C@@H](NC(=O)[C@H](CCN)NC(=O)c2cccc(C(F)(F)F)c2)[C@@H](C)O)CCNC1=O [Compound 124] ({Benzoyl(3-CF3)}-[Dab]T[Dap][Dab][Dab][dF]T[Dab][Dab]T; lactam 4-C)	−3.36	1 (≈ 0.827 µM)	1 (≈ 0.827 µM)	1 (≈ 0.827 µM)	0.25 (≈ 0.207 µM)	0.25 (≈ 0.207 µM)	0.5 (≈ 0.413 µM)	<0.125	0.5 (≈ 0.413 µM)	0.25 (≈ 0.207 µM)	0.25 (≈ 0.207 µM)	0.5 (≈ 0.413 µM)	2 (≈ 1.65 µM)
CCCC[C@H]1NC(=O)[C@H](CCN)NC(=O)[C@@H](NC(=O)[C@H](CN)NC(=O)[C@@H](NC(=O)[C@H](CCN)NC(=O)c2cccc(C(F)(F)F)c2)[C@@H](C)O)CCNC(=O)[C@H]([C@@H](C)O)NC(=O)[C@H](CCN)NC(=O)[C@H](CCN)NC(=O)[C@H](C)NC1=O [Compound 125] ({Benzoyl(3-CF3)}-[Dab]T[Dap][Dab][Dab][dNle]A[Dab][Dab]T; lactam 4-C)	−3.66	1 (≈ 0.873 µM)	1 (≈ 0.873 µM)	1 (≈ 0.873 µM)	0.5 (≈ 0.437 µM)	0.25 (≈ 0.218 µM)	0.5 (≈ 0.437 µM)	0.5 (≈ 0.437 µM)	1 (≈ 0.873 µM)	0.25 (≈ 0.218 µM)	0.25 (≈ 0.218 µM)	0.5 (≈ 0.437 µM)	2 (≈ 1.75 µM)
CC[C@@H]1NC(=O)[C@@H](CC(C)C)NC(=O)[C@H](CCN)NC(=O)[C@@H](NC(=O)[C@H](CN)NC(=O)[C@@H](NC(=O)[C@H](CCN)NC(=O)Cc2ccc(C(F)(F)F)cc2)[C@@H](C)O)CCNC(=O)[C@H]([C@@H](C)O)NC(=O)[C@H](CCN)NC(=O)[C@H](CCN)NC1=O [Compound 127] ({Phenylacetyl(4-CF3)}-[Dab]T[Dap][Dab][Dab][dL][Abu][Dab][Dab]T; lactam 4-C)	−3.51	4 (≈ 3.41 µM)	1 (≈ 0.852 µM)	4 (≈ 3.41 µM)	0.5 (≈ 0.426 µM)	0.5 (≈ 0.426 µM)	<0.125	0.25 (≈ 0.213 µM)	0.5 (≈ 0.426 µM)	0.5 (≈ 0.426 µM)	0.5 (≈ 0.426 µM)	0.5 (≈ 0.426 µM)	16 (≈ 13.6 µM)
CCCCCCCC(=O)N[C@@H](CCN)C(=O)N[C@H](C(=O)N[C@@H](CN)C(=O)N[C@H]1CCNC(=O)[C@H]([C@@H](C)O)NC(=O)[C@H](CCN)NC(=O)[C@H](CCN)NC(=O)[C@H](CC)NC(=O)[C@@H](Cc2ccccc2)NC(=O)[C@H](CCN)NC1=O)[C@@H](C)O [Compound 130] (Octanoyl-[Dab]T[Dap][Dab][Dab][dF][Abu][Dab][Dab]T; lactam 4-C)	−3.66	0.25 (≈ 0.218 µM)	0.25 (≈ 0.218 µM)	0.25 (≈ 0.218 µM)	0.25 (≈ 0.218 µM)	0.5 (≈ 0.436 µM)	0.25 (≈ 0.218 µM)	0.25 (≈ 0.218 µM)	1 (≈ 0.872 µM)	0.5 (≈ 0.436 µM)	0.5 (≈ 0.436 µM)	2 (≈ 1.74 µM)	2 (≈ 1.74 µM)
